Calls of active or inactive are those of the source. No rule for the calls is given here.
Biological target: Mu-type opioid receptor (Homo sapiens) (UniProt P35372)
Assay: OPRM1 activation in single-receptor cells, late-stage follow-up, counter-screen for OPRM1-OPRD1 heterodimer activator project, cell-based, luminescence, dose response (AID 651689)
Conditions: OPRM1 cell line, luminescence activation counterscreen

Chain of Mu-type opioid receptor (Homo sapiens) (P35372 whole entry, looked up): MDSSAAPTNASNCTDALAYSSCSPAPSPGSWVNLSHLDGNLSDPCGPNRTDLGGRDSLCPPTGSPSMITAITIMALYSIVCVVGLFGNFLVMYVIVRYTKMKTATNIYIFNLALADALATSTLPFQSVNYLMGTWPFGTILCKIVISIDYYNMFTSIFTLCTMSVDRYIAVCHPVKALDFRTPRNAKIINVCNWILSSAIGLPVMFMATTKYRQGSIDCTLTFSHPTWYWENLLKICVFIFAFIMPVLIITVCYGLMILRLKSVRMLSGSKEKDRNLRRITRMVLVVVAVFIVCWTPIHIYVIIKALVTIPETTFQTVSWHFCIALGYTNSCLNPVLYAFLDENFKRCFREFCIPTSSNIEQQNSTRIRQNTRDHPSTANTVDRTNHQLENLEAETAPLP

SMILES	EC50
CCOC(=O)C1(CC2CCCCO2)CCN(Cc2c(C)cc(C)cc2-n2cccn2)CC1 (stereo unspecified)	7.4 µM
CCOC(=O)C1(CCc2ccccc2)CCN(Cc2ccc(NC(C)=O)cc2)CC1	inactive
CCOC(=O)C1(CCOc2ccccc2)CCN(Cc2ccc(O)c(OC)c2)CC1	> 40 µM (inactive)
CCOC(=O)C1(CCc2ccccc2)CCN(Cc2cc(C)cc(C)c2)CC1	> 40 µM (inactive)
CCOC(=O)C1(Cc2ccccc2)CCN(Cc2cccn2-c2nccs2)CC1	> 40 µM (inactive)
CCOC(=O)C1(CCc2ccccc2)CCN(Cc2ccccc2C)CC1	inactive
OCC1(CCc2ccccc2)CCN(Cc2cc(F)ccc2-n2cccn2)CC1	> 40 µM (inactive)
CCOC(=O)C1(CCOc2ccccc2)CCN(Cc2cccn2-c2cccnc2)CC1	inactive
CCOC(=O)C1(CCCc2ccccc2)CCN(Cc2cnn(C)c2)CC1	> 40 µM (inactive)
CCOC(=O)C1(Cc2ccccc2)CCN(Cc2cccn2-c2cccnc2)CC1	> 40 µM (inactive)
CCOC(=O)C1(CCc2ccccc2)CCN(Cc2ccc(OC(C)C)c(C#N)c2)CC1	> 40 µM (inactive)

From PubChem BioAssay AID651689 (The Scripps Research Institute Molecular Screening Center, 2012)
